In patent US20250034165A1, “COMPOUND CONTAINING CYCLOALKYL OR HALOALKYL” (CHIA TAI TIANQING PHARMACEUTICAL GROUP CO., LTD., priority 2021, published 2025):
Where two headings read alike, the source gives them in different places.

Legend:
[1] = target: EGFR (d746-750 (d19)/T790M) (Homo sapiens (Human), UniProt P00533, DEL746-750/T790M); test: Inhibitory activity for EGFR (d746-750 (d19)/T790M) kinase; assay type: biochemical; conditions: ATP 5 μM
Method in brief: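 Recombinant EGFR d746-750/T790M (0.003 ng/μL final) preincubated 30 min with compound (10 to 0.0024 nM, 4-fold steps), then 5 μM ATP and 0.1 μM ULight-poly GT added for 2 h at room temperature. EDTA stop, Eu-anti-phosphotyrosine TR-FRET read (665 nm); IC50 by four-parameter fit.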

[2] = tested on: BAF3-EGFR (L858R/T790M/C797S) cells; test: Inhibition of proliferation of BAF3-EGFR (L858R/T790M/C797S) cells, CCK-8; assay type: cell-based; conditions: Ba/F3 EGFR, 72 h, read-out: BAF3(EGFR T790M L858R C797S) cell inhibitory activity IC50
Protocol: (§1) A flask of EGFR (L858R/T790M/C797S) cells in the logarithmic growth phase and good conditions was taken, and the cells were collected and added to a centrifuge tube. 20 μL of cells were taken and counted, and the required number of cells (mL) was pipetted and centrifuged at 1200 rpm for 3 min. The supernatant was discarded, and an appropriate amount of plating medium (RPMI medium+10% FBS) was added to adjust the cell density to 1.5×10^5 cells/mL. The cells were seeded on a 96-well plate at 100 μL/well using a multi-channel pipette and cultured in a cell incubator at 37° C., 5% CO2 with saturated humidity. After overnight incubation, compounds were loaded using a nanoliter pipettor, 2 duplicate wells were set for each concentration, and cells without compound added were used as negative controls.
(§2) Inhibition rate (%)=(mean value of negative control group-mean value of experimental group)/(mean value of negative control group−mean value of blank group)×100%.
(§3) A dose-response curve was fitted by four-parameter analysis, with the logarithm of compound concentration serving as abscissa and inhibition rate serving as ordinate, such that IC50 was calculated.

[3] = tested on: BAF3-EGFR (del19/T790M/C797S) cells; test: Inhibition of proliferation of BAF3-EGFR (Del19/T790M/C797S) cells, CCK-8; assay type: cell-based; conditions: Ba/F3 EGFR-Del19/T790M/C797S, 72 h, read-out: BAF3(EGFR T790M Del19 C797S) cell inhibitory activity IC50
Protocol: as §1, with “BAF3-EGFR (del19/T790M/C797S)” for “EGFR (L858R/T790M/C797S)”, “1.0×10^5” for “1.5×10^5”
as §2, §3

[4] = target: EGFR (d746-750/T790M/C797S) (Homo sapiens (Human), UniProt P00533, C797S/DEL746-750/T790M); test: Inhibitory activity for EGFR (d746-750/T790M/C797S) kinase; assay type: biochemical; conditions: ATP 5 μM; read-out: EGFR(d19/T790M/C797S) (IC50)
Method in brief: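 EGFR d746-750/T790M/C797S (0.03 ng/μL final) preincubated 30 min with compound (10 nM–0.0024 nM, 4-fold, 7 points). Reaction with 5 μM ATP and 0.1 μM ULight-poly GT, 2 h at room temperature; EDTA stop, Eu-anti-phosphotyrosine TR-FRET read at 665 nm, IC50 by four-parameter fit.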

[5] = tested on: PC-9 EGFR-Del19-T790M-C797S cells; test: Inhibition of proliferation of PC-9-EGFR (Del19 T790M C797S) cells, CCK-8; assay type: cell-based; conditions: 72 h, read-out: PC-9-EGFR (Del19 T790M C797S) cell inhibitory activity IC50
Protocol: PC-9 EGFR-Del19-T790M-C797S cells in the logarithmic growth phase and good conditions were taken, washed with PBS, digested with pancreatin, terminated with a complete medium, collected and added to a centrifuge tube, adjusted to a cell density of 2×10^4 cells/mL, and seeded in a 96-well plate (100 μL/well). Meanwhile, compounds were loaded using a nanoliter pipettor resulting in the final concentrations of the compounds of 1000 nM-0.06 nM, and a control was set, replicate wells for each concentration. After 72 h of incubation in the cell incubator, the assay reagent CCK-8 (manufacturer: Dojindo Laboratories, Beijing; 10 μL/well) was added. After 2 h of incubation in the cell incubator, absorbance was measured at 450 nm on a PerkinElmer Envision microplate reader, and the inhibition rate was calculated.
as §2, §3

[6] = In vivo pharmacokinetics in ICR mice; conditions: for AUC(0-t): read-out: AUC(0-t); for MRT last: read-out: MRT(0-t); for half-life: read-out: T½ (converted)
Protocol: The animals to be tested (ICR mice) were fasted for 12 h before administration and food was provided 4 h after administration, and water was freely drunk before and after the experiment and during the experiment.
After intragastric administration, about 0.1 mL of blood was collected from the orbit at 0 min, 15 min, 30 min, 1 h, 2 h, 4 h, 6 h, 8 h, 10 h, and 24 h. After anticoagulation with EDTA-K2, blood samples were transferred to a centrifuge within 30 min, and centrifuged at 4000 rpm for 10 min at 4° C. to separate the plasma. All the plasma samples were collected and immediately stored at −20° C. for testing.
300 μL of acetonitrile solution containing an internal standard ([…] diazepam) was added to 20 μL of the plasma sample to be tested and a standard curve sample. The mixture was shaken and homogeneously mixed for 5 min, and centrifuged at 12,000 rpm for 10 min. 70 μL of supernatant was taken and diluted with 70 μL of ultrapure water. After being mixed well, 2 μL of the resulting sample was subjected to LC/MS/MS, and a chromatogram was recorded.

[7] = mouse, plasma, PO, 10 mg/kg intragastric

Sequence of EGFR (d746-750/T790M/C797S) (P00533 other isoform, or with tags, fused parts or gaps T790M/C797S/del 1-694/del 746-750 limits assumed): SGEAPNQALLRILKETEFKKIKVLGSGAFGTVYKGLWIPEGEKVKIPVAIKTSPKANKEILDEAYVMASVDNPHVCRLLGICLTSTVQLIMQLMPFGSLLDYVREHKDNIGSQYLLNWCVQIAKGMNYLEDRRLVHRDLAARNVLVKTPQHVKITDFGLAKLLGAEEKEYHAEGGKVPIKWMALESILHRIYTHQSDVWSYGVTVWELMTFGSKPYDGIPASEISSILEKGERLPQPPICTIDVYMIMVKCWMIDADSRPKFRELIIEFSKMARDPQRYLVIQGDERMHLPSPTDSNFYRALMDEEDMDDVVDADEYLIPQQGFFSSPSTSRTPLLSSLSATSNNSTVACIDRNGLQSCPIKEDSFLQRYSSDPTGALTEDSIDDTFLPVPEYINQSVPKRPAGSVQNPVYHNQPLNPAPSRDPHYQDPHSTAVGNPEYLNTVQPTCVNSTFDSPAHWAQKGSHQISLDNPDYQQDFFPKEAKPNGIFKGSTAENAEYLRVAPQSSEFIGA
Sequence of EGFR (d746-750 (d19)/T790M) (P00533 other isoform, or with tags, fused parts or gaps T790M/del 1-668/del 746-750 limits assumed): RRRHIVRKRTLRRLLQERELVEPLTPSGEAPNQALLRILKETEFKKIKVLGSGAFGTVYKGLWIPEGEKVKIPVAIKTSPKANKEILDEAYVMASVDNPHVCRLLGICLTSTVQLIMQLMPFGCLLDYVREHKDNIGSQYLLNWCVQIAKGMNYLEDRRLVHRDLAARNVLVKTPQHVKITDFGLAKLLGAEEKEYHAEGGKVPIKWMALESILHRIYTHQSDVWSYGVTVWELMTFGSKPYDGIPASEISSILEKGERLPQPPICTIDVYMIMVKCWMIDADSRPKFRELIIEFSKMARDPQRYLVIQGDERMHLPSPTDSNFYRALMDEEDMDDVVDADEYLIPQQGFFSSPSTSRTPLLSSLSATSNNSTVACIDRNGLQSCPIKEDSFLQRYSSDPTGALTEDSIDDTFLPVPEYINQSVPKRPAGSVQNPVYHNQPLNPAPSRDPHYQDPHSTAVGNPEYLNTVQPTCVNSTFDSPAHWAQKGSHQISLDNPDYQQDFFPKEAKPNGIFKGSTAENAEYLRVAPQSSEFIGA

SMILES	IC50 [1] [pM]	IC50 [2] [pM]	IC50 [3] [pM]	IC50 [4] [pM]	IC50 [5] [pM]	further results
Cc1cc2cc(n1)-c1cnn(C3CC3)c1OCCC[C@@H](C)CN1/C(=N/C2=O)Nc2ccc(NCCN(C)C)cc21 [Example 17]	12	< 5000	< 1000	14		
Cc1cc2cc(n1)-c1cnn(C)c1OCCC[C@@H](C1CC1)CN1/C(=N/C2=O)Nc2cc(NCC3CCOCC3)ccc21 [Example 22]	18	< 5000	< 1000	30		
Cc1cc2cc(n1)-c1cnn(C)c1OCCC[C@@H](C1CC1)CN1/C(=N/C2=O)Nc2ccc(NCCCN(C)C)cc21 [Example 27]	19	< 5000	< 1000	27		
Cc1cc2cc(n1)-c1cnn(C)c1OCCC[C@@H](C1CC1)CN1/C(=N/C2=O)Nc2cc(NCC3COC3)ccc21 [Example 36]	15	< 5000	< 1000	22		
Cc1cc2cc(n1)-c1cnn(C)c1OCCC[C@@H](C1CC1)CN1/C(=N/C2=O)Nc2cc(NC(C)C3COC3)ccc21 (stereo partly shown) [Example 37]	13	< 5000	< 1000	22	< 50000	
Cc1cc2cc(n1)-c1cnn(C)c1OCCC[C@@H](C1CC1)CN1/C(=N/C2=O)Nc2cc(NCC3(C)COC3)ccc21 [Example 40]	14	< 5000	< 1000	21	< 50000	
Cc1cc2cc(n1)-c1cnn(C)c1OCCC[C@@H](C1CC1)CN1/C(=N/C2=O)Nc2cc(N(C)C3COC3)ccc21 [Example 41]	8.9	< 5000	< 1000	16	< 50000	
Cc1cc2cc(n1)-c1cnn(C)c1OCCC[C@@H](C1CC1)CN1/C(=N/C2=O)Nc2cc(NCCN(C)C)ccc21 [Example 42]	7.6	< 5000	< 1000	12		
Cc1cc2cc(n1)-c1cnn(C)c1OCCC[C@@H](C1CC1)CN1/C(=N/C2=O)Nc2ccc(NC3CCN(C(C)C)CC3)cc21 [Example 54]	13	< 5000	< 1000	21	< 50000	
CCN1CCC(Nc2ccc3c(c2)N2C[C@H](C4CC4)CCCOc4c(cnn4C)-c4cc(cc(C)n4)C(=O)/N=C/2N3)CC1 [Example 55]	14	< 5000	< 1000	20	< 50000	
Cc1cc2cc(n1)-c1cnn(C)c1OCCC[C@@H](C1CC1)CN1/C(=N/C2=O)Nc2ccc(NCCN)cc21 [Example 58]	9.4	< 5000	< 1000	15		
Cc1cc2cc(n1)-c1cnn(C)c1OCCC[C@@H](C1CC1)CN1/C(=N/C2=O)Nc2cc(NC(C)CN(C)C)ccc21 (stereo partly shown) [Example 62]	13	< 5000	< 1000	22		
Cc1cc2cc(n1)-c1cnn(C)c1OCCC[C@@H](C1CC1)CN1/C(=N/C2=O)Nc2ccc(NC(C)CN(C)C)cc21 (stereo partly shown) [Example 63]	8	< 5000	< 1000	13	< 50000	
Cc1cc2cc(n1)-c1cnn(C)c1OCCC[C@@H](C1CC1)CN1/C(=N/C2=O)Nc2cc(NCCCN3CCOCC3)ccc21 [Example 74]		< 5000	< 1000		< 50000	CLz ([6]; IV): 70.5 mL/min/kg; AUC(0-inf) ([6]; mouse, plasma, 1 mg/kg, IV): 236 ng·h/mL; AUC(0-t) ([6]; mouse, plasma, 1 mg/kg, IV): 233 ng·h/mL; MRT last ([6]; mouse, plasma, 1 mg/kg, IV): 1.35 h; half-life ([6]; mouse, plasma, 1 mg/kg, IV): 1.84 h; bioavailability ([6]; mouse, plasma, 10 mg/kg, PO vs IV): 35.4%; AUC(0-inf) [6, 7]: 830 ng·h/mL; AUC(0-t) [6, 7]: 824 ng·h/mL; Cmax ([6]; mouse, plasma, PO, 10 mg/kg intragastric, read-out: Cmax): 97.6 ng/mL; MRT last [6, 7]: 6.42 h; Tmax ([6]; mouse, plasma, PO, 10 mg/kg intragastric, read-out: Tmax): 0.5 h; half-life [6, 7]: 3.18 h
Cc1cc2cc(n1)-c1cnn(C)c1OCCC[C@@H](C1CC1)CN1/C(=N/C2=O)Nc2ccc(NCCCN3CCCCC3)cc21 [Example 80]	10	< 5000	< 1000	35	< 50000	
Cc1cc2cc(n1)-c1cnn(C)c1OCCC[C@@H](C1CC1)CN1/C(=N/C2=O)Nc2ccc(NCCCN3CCOCC3)cc21 [Example 81]	11	< 5000	< 1000	37	< 50000	
Cc1cc2cc(n1)-c1cnn(C)c1OCCC[C@@H](C1CC1)CN1/C(=N/C2=O)Nc2ccc(NCCN3CCCC3)cc21 [Example 82]	8.5	< 5000	< 1000	20	< 50000	
Cc1cc2cc(n1)-c1cnn(C)c1OCCC[C@@H](C1CC1)CN1/C(=N/C2=O)Nc2ccc(NCCN3CCCCC3)cc21 [Example 83]	13	< 5000	< 1000	17		
Cc1cc2cc(n1)-c1cnn(C)c1OCCC[C@@H](C1CC1)CN1/C(=N/C2=O)Nc2cc(NC(C)C3(C)COC3)ccc21 (stereo partly shown) [Example 89]	510	< 5000	< 1000	360	< 50000	
